In ChEMBL document CHEMBL4382223, “Design, synthesis and biological evaluation of anthranilamide derivatives as potential factor Xa (fXa) inhibitors” (Bioorg Med Chem, 2018):
Calls of active or inactive are those of the source. The calls are words filed in the database; no cut-off is given here.

Key:
[1] = target: Coagulation factor X (Homo sapiens, UniProt P00742); experiment: Inhibition of human factor Xa using S-2222 as substrate preincubated for 30 mins followed by substrate addition and measured for 20 mins
Sequence of Coagulation factor X (P00742 41-179 limits assumed): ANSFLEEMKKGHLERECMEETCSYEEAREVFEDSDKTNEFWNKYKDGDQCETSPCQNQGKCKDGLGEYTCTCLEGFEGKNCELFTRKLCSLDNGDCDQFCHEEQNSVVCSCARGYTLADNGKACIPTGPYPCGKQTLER
Sequence of Coagulation factor X (P00742 235-488 limits assumed): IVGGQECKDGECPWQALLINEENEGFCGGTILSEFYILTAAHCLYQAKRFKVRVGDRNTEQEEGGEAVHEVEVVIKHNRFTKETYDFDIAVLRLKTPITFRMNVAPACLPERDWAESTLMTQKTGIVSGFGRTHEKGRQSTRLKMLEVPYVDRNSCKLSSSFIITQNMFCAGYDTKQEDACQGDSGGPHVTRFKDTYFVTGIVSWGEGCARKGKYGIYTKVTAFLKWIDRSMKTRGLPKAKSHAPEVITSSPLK

[2] = organism: Homo sapiens; experiment: Selectivity ratio of IC50 for human recombinant thrombin expressed in HEK293 cells to IC50 for human factor Xa; assay type: cell-based
[3] = system: Rattus norvegicus; experiment: Antithrombotic activity in rat model of arteriovenous shunt thrombosis dosed orally 90 mins before shunt was opened for 15 mins; assay type: functional, organism-based
[4] = organism: Homo sapiens; experiment: Selectivity ratio of IC50 for human trypsin to IC50 for human factor Xa
[5] = Plasma clearance in Sprague-Dawley rat at 1 mg/kg, iv by LC-MS analysis; assay type: ADME, organism-based; settings: in vivo
[6] = system: H9c2; experiment: Cytoprotective activity against hypoxia/reoxygenation-induced toxicity in rat H9c2 cells assessed as increase in cell viability at 1 to 10 uM by MTT assay; assay type: functional, cell-based
[7] = system: Rattus norvegicus; experiment: Antithrombotic activity in rat model of FeCl3-induced venous thrombosis dosed orally 60 mins before thrombus formation; assay type: functional, organism-based
[8] = system: Rattus norvegicus; experiment: Antithrombotic activity in rat model of FeCl3-induced venous thrombosis assessed as reduction thrombus weight at 1 mg/kg, po dosed 60 mins before thrombus formation relative to untreated control; assay type: functional; design: scale not given: the % may be the effect or the level left
[9] = Elimination half life in Sprague-Dawley rat at 1 mg/kg, iv by LC-MS analysis; assay type: ADME, organism-based; settings: in vivo
[10] = target: Coagulation factor IX (Homo sapiens, UniProt P00740); experiment: Inhibition of human factor 9a preincubated for 30 mins followed by substrate addition and measured for 20 mins
Sequence of Coagulation factor IX (P00740 47-191 limits assumed): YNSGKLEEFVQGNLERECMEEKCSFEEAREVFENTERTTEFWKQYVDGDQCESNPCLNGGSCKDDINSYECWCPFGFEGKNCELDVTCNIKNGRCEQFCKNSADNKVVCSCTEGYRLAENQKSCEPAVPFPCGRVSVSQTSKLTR
Sequence of Coagulation factor IX (P00740 227-461 limits assumed): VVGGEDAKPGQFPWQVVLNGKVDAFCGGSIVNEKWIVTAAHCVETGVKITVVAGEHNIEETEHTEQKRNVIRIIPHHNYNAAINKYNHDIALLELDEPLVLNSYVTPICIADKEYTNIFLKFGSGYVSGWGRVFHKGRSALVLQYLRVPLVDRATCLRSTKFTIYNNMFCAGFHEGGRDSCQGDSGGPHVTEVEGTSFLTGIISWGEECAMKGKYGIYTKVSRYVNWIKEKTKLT

[11] = system: Rattus norvegicus; experiment: Antithrombotic activity in rat model of arteriovenous shunt thrombosis assessed as reduction thrombus weight at 1 mg/kg, po dosed 90 mins before shunt was opened for 15 mins relative to untreated control; assay type: functional; design: scale not given: the % may be the effect or the level left
[12] = system: Rattus norvegicus; experiment: Antithrombotic activity in rat model of FeCl3-induced venous thrombosis assessed as reduction thrombus weight at 10 mg/kg, po dosed 60 mins before thrombus formation relative to untreated control; assay type: functional; design: scale not given: the % may be the effect or the level left
[13] = Volume of distribution at steady state in Sprague-Dawley rat at 1 mg/kg, iv by LC-MS analysis; assay type: ADME, organism-based; settings: in vivo
[14] = target: T1, Coagulation factor VII (Homo sapiens, UniProt P08709); experiment: Inhibition of human factor 7a preincubated for 30 mins followed by substrate addition and measured for 20 mins
T1 sequence (P08709 whole entry): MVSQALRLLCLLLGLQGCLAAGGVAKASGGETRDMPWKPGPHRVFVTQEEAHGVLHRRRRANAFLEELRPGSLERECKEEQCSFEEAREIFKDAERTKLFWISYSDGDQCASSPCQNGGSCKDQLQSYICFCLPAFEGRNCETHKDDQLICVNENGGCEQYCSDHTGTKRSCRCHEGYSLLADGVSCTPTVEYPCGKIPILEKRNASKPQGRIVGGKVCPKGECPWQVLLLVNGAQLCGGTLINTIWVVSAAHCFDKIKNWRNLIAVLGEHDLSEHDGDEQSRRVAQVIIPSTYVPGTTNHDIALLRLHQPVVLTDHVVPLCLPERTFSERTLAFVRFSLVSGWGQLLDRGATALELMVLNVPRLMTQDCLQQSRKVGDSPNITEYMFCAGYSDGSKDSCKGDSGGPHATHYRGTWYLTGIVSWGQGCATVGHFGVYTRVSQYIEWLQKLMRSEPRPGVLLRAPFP

[15] = Cmax in Sprague-Dawley rat at 3 mg/kg, po by LC-MS analysis; assay type: ADME, organism-based; design: dose 3 mg/kg, route oral; settings: in vivo
[16] = organism: Homo sapiens; experiment: Selectivity ratio of IC50 for human factor 9a to IC50 for human factor Xa
[17] = system: Plasma; experiment: Anticoagulant activity in citrated rabbit plasma assessed as concentration required to double prothrombin time after 10 mins by coagulometric analysis; assay type: functional, Oryctolagus cuniculus
[18] = Toxicity in rat assessed as prolongation of tail bleeding dosed orally 60 mins before tails of anesthetized rat were transected and measured over 30 mins; assay type: organism-based; settings: in vivo, po, 0.5 h
[19] = AUC (0 to infinity) in Sprague-Dawley rat at 3 mg/kg, po by LC-MS analysis; assay type: ADME, organism-based; design: dose 3 mg/kg, route oral, time infinity; settings: in vivo
[20] = system: Rattus norvegicus; experiment: Antithrombotic activity in rat model of FeCl3-induced venous thrombosis assessed as reduction thrombus weight at 5 mg/kg, po dosed 60 mins before thrombus formation relative to untreated control; assay type: functional; design: scale not given: the % may be the effect or the level left
[21] = target: Prothrombin (Homo sapiens, UniProt P00734); experiment: Inhibition of human recombinant thrombin expressed in HEK293 cells using S-2238 as substrate preincubated for 30 mins followed by substrate addition and measured for 20 mins; assay type: single protein
[22] = Oral bioavailability in Sprague-Dawley rat at 3 mg/kg by LC-MS analysis; assay type: ADME, organism-based; settings: in vivo
[23] = Elimination half life in Sprague-Dawley rat at 3 mg/kg, po by LC-MS analysis; assay type: ADME, organism-based; settings: in vivo, read-out: beta t1/2 (converted)
[24] = system: Plasma; experiment: Anticoagulant activity in citrated rabbit plasma assessed as concentration required to double activated partial thromboplastin time after 10 mins by coagulometric analysis; assay type: functional, Oryctolagus cuniculus
[25] = Tmax in Sprague-Dawley rat at 3 mg/kg, po by LC-MS analysis; assay type: ADME, organism-based; settings: in vivo
[26] = organism: Homo sapiens; experiment: Selectivity ratio of IC50 for human factor 7a to IC50 for human factor Xa
[27] = Toxicity in rat assessed as prolongation of tail bleeding at 1 to 10 mg/kg, po dosed 60 mins before tails of anesthetized rat were transected and measured over 30 mins; assay type: organism-based; settings: in vivo, 0.5 h
[28] = AUC (0 to infinity) in Sprague-Dawley rat at 1 mg/kg, iv by LC-MS analysis; assay type: ADME, organism-based; design: dose 1 mg/kg, time infinity, route intravenous; settings: in vivo
[29] = target: Trypsin (Homo sapiens, UniProt P07477+P07478+P35030); experiment: Inhibition of human trypsin preincubated for 30 mins followed by substrate addition and measured for 20 mins; assay type: protein assay
[30] = system: Rattus norvegicus; experiment: Antithrombotic activity in rat model of arteriovenous shunt thrombosis assessed as reduction thrombus weight at 10 mg/kg, po dosed 90 mins before shunt was opened for 15 mins relative to untreated control; assay type: functional; design: scale not given: the % may be the effect or the level left
[31] = system: Rattus norvegicus; experiment: Antithrombotic activity in rat model of arteriovenous shunt thrombosis assessed as reduction thrombus weight at 5 mg/kg, po dosed 90 mins before shunt was opened for 15 mins relative to untreated control; assay type: functional; design: scale not given: the % may be the effect or the level left

COc1ccc(NC(=O)c2ccc(N3CCCCC3=O)cc2)c(C(=O)Nc2cccc(F)c2)c1
IC50 [1]: 0.045 µM

COc1ccc(NC(=O)c2cc(OC)ccc2NC(=O)c2ccc(N3CCCCC3=O)cc2)cc1
IC50 [1]: 0.513 µM

COc1ccc(NC(=O)c2nc3c(s2)CN(C)CC3)c(C(=O)Nc2ccc(Cl)s2)c1
IC50 [1]: 1.39 µM

COc1ccc(NC(=O)c2ccc(-n3ccccc3=O)cc2)c(C(=O)Nc2ccc(Cl)cc2)c1
IC50 [1]: 0.179 µM

C#Cc1ccc(NC(=O)c2cc(OC)ccc2NC(=O)c2nc3c(s2)CN(C)CC3)cc1
IC50 [1]: 0.02 µM

COc1ccc(NC(=O)c2nc3c(s2)CN(C)CC3)c(C(=O)Nc2ccc(Cl)cn2)c1
Ratio IC50 [2]: > 1000
Activity [3]: Dose-dependent effect
Ratio IC50 [4]: > 1000
CL [5]: 15.3 mL/min/kg
Activity [6]: Active
Activity [7]: Dose-dependent effect
Activity [8]: 23%
beta t1/2 [9]: 8.8 h
IC50 [10]: 36 µM
Activity [11]: 30%
Activity [12]: 54%
Vdss [13]: 0.201 L/kg
IC50 [14]: 12 µM
Cmax [15]: 221 ng/mL
Ratio IC50 [16]: > 1000
2PT [17]: 0.8 µM
Activity [18]: Dose-dependent effect
AUC [19]: 1160 ng·h/mL
Activity [20]: 36%
IC50 [1]: 0.0035 µM
IC50 [21]: 4.2 µM
F [22]: 51.3%
half-life [23]: 9.6 h
2aPTT [24]: 0.5 µM
Tmax [25]: 3.2 h
Ratio IC50 [26]: > 1000
Activity [27]: Toxic
AUC [28]: 2258 ng·h/mL
IC50 [29]: 9.1 µM
Activity [30]: 67%
Activity [31]: 50%

COc1ccc(NC(=O)c2ccc(C(=N)N(C)C)cc2)c(C(=O)Nc2ccc(Cl)cn2)c1 [BETRIXABAN]
CL [5]: 22.7 mL/min/kg
Activity [6]: inactive
Activity [8]: 27%
beta t1/2 [9]: 7.8 h
Activity [11]: 24%
Activity [12]: 59%
Vdss [13]: 0.191 L/kg
Cmax [15]: 146 ng/mL
2PT [17]: 2.4 µM
Activity [18]: Dose-dependent effect
AUC [19]: 571 ng·h/mL
Activity [20]: 38%
IC50 [21]: 18 µM
F [22]: 30.2%
half-life [23]: 8.6 h
2aPTT [24]: 1.1 µM
Tmax [25]: 2.6 h
Activity [27]: Toxic
AUC [28]: 1832 ng·h/mL
Activity [30]: 61%
Activity [31]: 43%

COc1ccc(NC(=O)c2nc3c(s2)CN(C)CC3)c(C(=O)Nc2ccc(F)cn2)c1
IC50 [1]: 0.024 µM

COc1ccc(NC(=O)c2ccc(N3CCCC3=O)cc2)c(C(=O)Nc2ccc(Cl)cc2)c1
IC50 [1]: 0.653 µM

COc1ccc(NC(=O)c2nc3c(s2)CN(C)CC3)c(C(=O)Nc2cccc(Cl)c2)c1
IC50 [1]: 0.315 µM

COc1ccc(NC(=O)c2nc3c(s2)CN(C)CC3)c(C(=O)Nc2ccc(C)cc2)c1
IC50 [1]: 0.03 µM

COc1ccc(NC(=O)c2cc(OC)ccc2NC(=O)c2ccc(N3CCOCC3=O)cc2)cc1
IC50 [1]: 0.077 µM

COc1ccc(NC(=O)c2ccc(N3CCCCC3=O)cc2)c(C(=O)Nc2ccc(Cl)cc2)c1
IC50 [1]: 0.246 µM

COc1ccc(NC(=O)c2ccc(N3CCCCC3=O)cc2)c(C(=O)Nc2ccc(C(C)(C)C)cc2)c1
IC50 [1]: 0.272 µM

COc1ccc(NC(=O)c2ccc(N3CCOCC3=O)cc2)c(C(=O)Nc2ccccc2OC)c1
IC50 [1]: 1.54 µM

COc1ccc(NC(=O)c2ccc(N3CCOCC3=O)cc2)c(C(=O)Nc2ccc(C(C)(C)C)cc2)c1
IC50 [1]: 2.09 µM

COc1ccc(NC(=O)c2ccc(N3CCCCC3=O)cc2)c(C(=O)Nc2ccc(F)cc2)c1
IC50 [1]: 1.08 µM

COc1ccc(NC(=O)c2nc3c(s2)CN(C)CC3)c(C(=O)Nc2ccc(Cl)cc2)c1
Ratio IC50 [2]: > 1000
Ratio IC50 [4]: > 1000
IC50 [10]: 26 µM
IC50 [14]: 4.7 µM
Ratio IC50 [16]: > 1000
2PT [17]: 1.3 µM
IC50 [1]: 0.0048 µM
IC50 [21]: 7.1 µM
2aPTT [24]: 0.8 µM
Ratio IC50 [26]: > 1000
IC50 [29]: 18 µM

O=C(NC[C@H]1CN(c2ccc(N3CCOCC3=O)cc2)C(=O)O1)c1ccc(Cl)s1
Activity [6]: Active

COc1ccc(NC(=O)c2cc(OC)ccc2NC(=O)c2nc3c(s2)CN(C)CC3)cc1
IC50 [1]: 0.234 µM

COc1ccc(NC(=O)c2nc3c(s2)CN(C)CC3)c(C(=O)Nc2ccc(C)cn2)c1
Ratio IC50 [2]: > 1000
Ratio IC50 [4]: > 1000
IC50 [10]: 42 µM
IC50 [14]: 11 µM
Ratio IC50 [16]: > 1000
2PT [17]: 5.6 µM
IC50 [1]: 0.01 µM
IC50 [21]: 32 µM
2aPTT [24]: 2.2 µM
Ratio IC50 [26]: > 1000
IC50 [29]: 54 µM

COc1ccc(NC(=O)c2ccc(N3CCCCC3=O)cc2)c(C(=O)Nc2ccccc2OC)c1
IC50 [1]: 3.19 µM

COc1cccc(NC(=O)c2cc(OC)ccc2NC(=O)c2nc3c(s2)CN(C)CC3)c1
IC50 [1]: 0.981 µM

COc1ccc(NC(=O)c2ccc(N3CCOCC3=O)cc2)c(C(=O)Nc2ccc(Cl)cc2)c1
IC50 [1]: 0.018 µM
